Measured values: patent US11332452B2, “Pesticidal compositions and methods” (priority 2019, dated 2022)

Tests used:
Type in all cases: in vivo
[1] = system: Beet Armyworm (Spodoptera exigua, LAPHEG); assay: Insecticidal test for beet armyworm (BAW), 128-well diet tray assay; settings: 168 h, 50 μg/cm^2 of test compound on artificial diet, second instar larvae, 25° C., five to seven days, average of eight wells, read-out: BAW % Control (or Mortality) rating
Procedure: Insecticidal Test for Beet Armyworm (Spodoptera exigua, LAPHEG) (“BAW”)
(§1) Bioassays on beet armyworm (BAW; Spodoptera exigua: Lepidoptera) are conducted using a 128-well diet tray assay. One to five second instar BAW larvae are placed in each well (3 mL) of the diet tray that had been previously filled with 1 mL of artificial diet to which 50 μg/cm^2 of the test compound (dissolved in 50 μL of 90:10 acetone-water mixture) had been applied (to each of eight wells) and then allowed to dry. Trays are covered with a clear self-adhesive cover, vented to allow gas exchange, and held at 25° C., 14:10 light-dark for five to seven days. Percent mortality is recorded for the larvae in each well; activity in the eight wells is then averaged.

[2] = system: Cabbage Looper (Trichloplusia Ni, TRIPNI); assay: Insecticidal test for cabbage looper (CL), 128-well diet tray assay; settings: Trichoplusia ni, 168 h, read-out: CL % Control (or Mortality) rating
Procedure: Insecticidal Test for Cabbage Looper (Trichloplusia Ni, TRIPNI) (“CL”)
as §1, with “cabbage looper (CL; Trichloplusia ni:” for “beet armyworm (BAW; Spodoptera exigua:”, “CL” for “BAW”

[3] = system: Yellow Fever Mosquito (Aedes aegypti, AEDSAE); assay: Insecticidal test for yellow fever mosquito (YFM), 96-well plate larval assay; settings: from 4000 ppm DMSO master solution, diluted; about 1 day-old larvae; room temperature; scored after 3 days
Procedure: Insecticidal Test for Yellow Fever Mosquito (Aedes aegypti, AEDSAE) (“YFM”)
Master plates containing 400 μg of a molecule dissolved in 100 μL of dimethyl sulfoxide (DMSO) (equivalent to a 4000 ppm solution) are used. A master plate of assembled molecules contains 15 μL per well. To this plate, 135 μL of a 90:10 water/acetone mixture is added to each well. A robot (Biomek® NXP Laboratory Automation Workstation) is programmed to dispense 15 μL aspirations from the master plate into an empty 96-well shallow plate (“daughter” plate). There are 6 reps (“daughter” plates) created per master. The created “daughter” plates are then immediately infested with YFM larvae.
The day before plates are to be treated, mosquito eggs are placed in Millipore water containing liver powder to begin hatching (4 g. into 400 mL). After the “daughter” plates are created using the robot, they are infested with 220 μL of the liver powder/larval mosquito mixture (about 1 day-old larvae). After plates are infested with mosquito larvae, a non-evaporative lid is used to cover the plate to reduce drying. Plates are held at room temperature for 3 days prior to grading. After 3 days, each well is observed and scored based on mortality.

Structure (SMILES) | mortality at 50 µg/cm2 [1] | mortality at 50 µg/cm2 [2] | YFM % Control (or Mortality) rating [3]
COc1ccc(N2C(=O)CS/C2=N\C(=O)NC(C)Cc2ccc(NC(=O)Nc3ccc(C(F)(F)F)cc3)cc2)c(C)c1 (stereo not drawn) [Compound A31, (Z)-1-(4-(2-(3-(3-(4-Methoxy-2-methylphenyl)-4-oxothiazolidin-2-ylidene)ureido)propyl)phenyl)-3-(4-(trifluoromethyl)phenyl)urea] | 0 to 50% | 50 to 100% | A (80-100)
CCCc1ccc(OC)cc1N1C(=O)CS/C1=N\C(=O)NC(C)Cc1ccc(NC(=O)Nc2ccc(OC(F)(F)F)cc2)cc1 (stereo not drawn) [Compound A37, (Z)-1-(4-(2-(3-(3-(5-Methoxy-2-propylphenyl)-4-oxothiazolidin-2-ylidene)ureido)propyl)phenyl)-3-(4-(trifluoromethoxy)phenyl)urea] | 50 to 100% | 50 to 100% | B (More than 0-Less than 80)
COc1ccc(N2C(=O)CS/C2=N\C(=O)NCCc2ccc(NC(=O)Nc3ccc(C(F)(F)F)cc3)cc2)c(C)c1 [Compound A10, (Z)-1-(4-(2-(3-(3-(4-Methoxy-2-methylphenyl)-4-oxothiazolidin-2-ylidene)ureido)ethyl)phenyl)-3-(4-(trifluoromethyl)phenyl)urea] | 50 to 100% | 50 to 100% | A (80-100)
Cc1ccc(C(C)C)c(N2C(=O)CS/C2=N\C(=O)NCCc2ccc(NC(=S)Nc3ccc(OC(F)(F)F)cc3)cc2)c1 [Compound A46, (Z)-1-(3-(2-isopropyl-5-methylphenyl)-4-oxothiazolidin-2-ylidene)-3-(4-(3-(4-(trifluoromethoxy)phenyl)thioureido)phenethyl)urea] | 50 to 100% | 50 to 100% | A (80-100)
CC(Cc1ccc(NC(=O)Nc2ccc(C(F)(F)F)cc2)cc1)NC(=O)/N=C1\SCC(=O)N1c1cc(Cl)ccc1C(C)C (stereo not drawn) [Compound A29, (Z)-1-(4-(2-(3-(3-(5-Chloro-2-isopropylphenyl)-4-oxothiazolidin-2-ylidene)ureido)propyl)phenyl)-3-(4-(trifluoromethyl)phenyl)urea] | 50 to 100% | 50 to 100% | A (80-100)
Cc1ccc(C(C)C)c(N2C(=O)CS/C2=N\C(=O)Nc2ccc(NNC(=O)c3ccc(OC(F)(F)F)cc3)cc2)c1 [Compound A4, (Z)-1-(3-(2-isopropyl-5-methylphenyl)-4-oxothiazolidin-2-ylidene)-3-(4-(2-(4-(trifluoromethoxy)benzoyl)hydrazinyl)phenyl)urea] | 50 to 100% | 50 to 100% | A (80-100)
Cc1ccc(OCC(F)(F)F)c(N2C(=O)CS/C2=N\C(=O)NC(C)Cc2ccc(NC(=O)Nc3ccc(OC(F)(F)F)cc3)cc2)c1 (stereo not drawn) [Compound A38, (Z)-1-(4-(2-(3-(3-(5-Methyl-2-(2,2,2-trifluoroethoxy)phenyl)-4-oxothiazolidin-2-ylidene)ureido)propyl)phenyl)-3-(4-(trifluoromethoxy)phenyl)urea] | 50 to 100% | 50 to 100% | B (More than 0-Less than 80)
Cc1ccc(OCC(F)(F)F)c(N2C(=O)CS/C2=N\C(=O)NCCc2ccc(NC(=O)Nc3ccc(OC(F)(F)F)cc3)cc2)c1 [Compound A19, (Z)-1-(4-(2-(3-(3-(5-Methyl-2-(2,2,2-trifluoroethoxy)phenyl)-4-oxothiazolidin-2-ylidene)ureido)ethyl)phenyl)-3-(4-(trifluoromethoxy)phenyl)urea] | 50 to 100% | 50 to 100% | B (More than 0-Less than 80)
Cc1ccc(C(C)C)c(-n2ccs/c2=N\C(=O)NCCc2ccc(NC(=O)Nc3ccc(OC(F)(F)F)cc3)cc2)c1 [Compound A22, (Z)-1-(4-(2-(3-(3-(2-Isopropyl-5-methylphenyl)thiazol-2(3H)-ylidene)ureido)ethyl)phenyl)-3-(4-(trifluoromethoxy)phenyl)urea] | 50 to 100% | 50 to 100% | A (80-100)
Cc1ccc(C(C)C)c(N2C(=O)CS/C2=N\C(=O)Nc2ccc(CCNC(=O)c3ccc(OC(F)(F)F)cc3)cc2)c1 [Compound A50, (Z)—N-(4-(3-(3-(2-isopropyl-5-methylphenyl)-4-oxothiazolidin-2-ylidene)ureido)phenethyl)-4-(trifluoromethoxy)benzamide] | 50 to 100% | 50 to 100% | A (80-100)
Cc1ccc(C(C)C)c(N2C(=O)CS/C2=N\C(=O)NCCc2ccc(NC(=O)Oc3ccc(OC(F)(F)F)cc3)cc2)c1 [Compound A53, 4-(trifluoromethoxy)phenyl (Z)-(4-(2-(3-(3-(2-isopropyl-5-methylphenyl)-4-oxothiazolidin-2-ylidene)ureido)ethyl)phenyl)carbamate] | 50 to 100% | 50 to 100% | A (80-100)
Cc1ccc(C(C)C)c(N2C(=O)CS/C2=N\C(=O)Nc2ccc(NC(=O)c3ccc(OC(F)(F)F)cc3)cc2)c1 [Compound A48, (Z)—N-(4-(3-(3-(2-isopropyl-5-methylphenyl)-4-oxothiazolidin-2-ylidene)ureido)phenyl)-4-(trifluoromethoxy)benzamide] | 50 to 100% | 50 to 100% | A (80-100)
CC(Cc1ccc(NC(=O)Nc2ccc(OC(F)(F)F)cc2)cc1)NC(=O)/N=C1\SCC(=O)N1c1ccccc1C(C)C (stereo not drawn) [Compound A34, (Z)-1-(4-(2-(3-(3-(2-Isopropylphenyl)-4-oxothiazolidin-2-ylidene)ureido)propyl)phenyl)-3-(4-(trifluoromethoxy)phenyl)urea] | 50 to 100% | 50 to 100% | A (80-100)
CC(C)c1ccccc1N1C(=O)CS/C1=N\C(=O)NCCc1ccc(NC(=O)Nc2ccc(C(F)(F)F)cc2)cc1 [Compound A12, (Z)-1-(4-(2-(3-(3-(2-Isopropylphenyl)-4-oxothiazolidin-2-ylidene)ureido)ethyl)phenyl)-3-(4-(trifluoromethyl)phenyl)urea] | 50 to 100% | 50 to 100% | A (80-100)
Cc1ccc(C(C)C)c(N2C(=O)CS/C2=N\C(=O)NCCc2ccc(NCC(=O)c3ccc(OC(F)(F)F)cc3)cc2)c1 [Compound A1, (Z)-1-(3-(2-isopropyl-5-methylphenyl)-4-oxothiazolidin-2-ylidene)-3-(4-((2-oxo-2-(4-(trifluoromethoxy)phenyl)ethyl)amino)phenethyl)urea] | 50 to 100% | 50 to 100% | A (80-100)
Cc1ccc(C(C)C)c(N2C(=O)CS/C2=N\C(=O)Nc2ccc(CCNC(=S)Nc3ccc(OC(F)(F)F)cc3)cc2)c1 [Compound A47, (Z)-1-(3-(2-isopropyl-5-methylphenyl)-4-oxothiazolidin-2-ylidene)-3-(4-(2-(3-(4-(trifluoromethoxy)phenyl)thioureido)ethyl)phenyl)urea] | 50 to 100% | 50 to 100% | A (80-100)
Cc1cc(N2C(=O)CS/C2=N\C(=O)NCCc2ccc(NC(=O)Nc3ccc(OC(F)(F)F)cc3)cc2)c(C(C)C)cc1F [Compound A25, (Z)-1-(4-(2-(3-(3-(4-Fluoro-2-isopropyl-5-methylphenyl)-4-oxothiazolidin-2-ylidene)ureido)ethyl)phenyl)-3-(4-(trifluoromethoxy)phenyl)urea] | 50 to 100% | 50 to 100% | A (80-100)
CC(C)c1ccccc1N1C(=O)CS/C1=N\C(=O)Nc1ccc(N/N=C/c2ccc(OC(F)(F)F)cc2)cc1 [Compound A54, 1-((Z)-3-(2-isopropylphenyl)-4-oxothiazolidin-2-ylidene)-3-(4-(2-((E)-4-(trifluoromethoxy)benzylidene)hydrazinyl)phenyl)urea] | 50 to 100% | 50 to 100% | A (80-100)
